Tests used:
CYP2C19 = target: T1, CYP2C19 (Homo sapiens, UniProt P33261); test: Cytochrome P450 isozyme inhibitory activity test (human liver microsomes); format: in vitro ADME; conditions: human liver microsomes 0.1 mg/mL
T1 construct: Mixed human liver microsomes (HLM) purchased from Corning Inc; tissue Corning Inc; host or cells: pooled human liver microsomes

CYP2D6 = target: T2, CYP2D6 (Homo sapiens, UniProt P10635); test: as above; format: in vitro ADME; conditions: human liver microsomes 0.1 mg/mL
T2 construct: Mixed human liver microsomes (HLM) purchased from Corning Inc; tissue Corning Inc; host or cells: pooled human liver microsomes

CYP3A4-M = target: T3, CYP3A4-M (Homo sapiens, UniProt P08684); test: as above; format: in vitro ADME; conditions: human liver microsomes 0.1 mg/mL
T3 construct: Mixed human liver microsomes (HLM) purchased from Corning Inc; tissue Corning Inc; host or cells: pooled human liver microsomes

CYP1A2 = target: T4, CYP1A2 (Homo sapiens, UniProt P05177); test: as above; format: in vitro ADME; conditions: human liver microsomes 0.1 mg/mL
T4 construct: Mixed human liver microsomes (HLM) purchased from Corning Inc; tissue Corning Inc; host or cells: pooled human liver microsomes
T4 sequence (P05177 1-516): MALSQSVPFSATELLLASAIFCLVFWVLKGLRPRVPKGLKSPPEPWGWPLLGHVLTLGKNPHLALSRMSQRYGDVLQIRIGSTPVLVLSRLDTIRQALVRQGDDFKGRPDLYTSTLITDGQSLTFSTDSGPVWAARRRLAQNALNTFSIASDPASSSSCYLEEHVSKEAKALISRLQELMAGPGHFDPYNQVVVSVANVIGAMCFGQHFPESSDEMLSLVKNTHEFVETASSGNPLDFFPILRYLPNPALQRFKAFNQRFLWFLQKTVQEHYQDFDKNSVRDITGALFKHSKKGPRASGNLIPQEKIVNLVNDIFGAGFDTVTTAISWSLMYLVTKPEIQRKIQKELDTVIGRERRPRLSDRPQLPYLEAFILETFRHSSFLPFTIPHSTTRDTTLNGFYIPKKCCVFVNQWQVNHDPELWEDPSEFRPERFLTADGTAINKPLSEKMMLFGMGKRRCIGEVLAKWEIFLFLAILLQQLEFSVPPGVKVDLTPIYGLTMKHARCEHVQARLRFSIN

Ba/F3-TEL-TRKB = test: Anti-proliferative activity test on Ba/F3 cell lines (CellTiter-Glo); format: cell-based; conditions: Mus musculus, BaF3; 72 hours; read-out: Half maximal inhibitory concentration IC50 for cells Ba/F3-TEL-TRKB
Summary of the method: (§1)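 Cells (2000/well) were exposed for 72 h at 37°C, 5% CO2, to an 8-point 3-fold series (1000× plate starting at 1 µM), with 0.1% DMSO final. Viability was read by CellTiter-Glo luminescence. Inhibition was normalised to DMSO (Max) and cell-free (Min) controls, and IC50 was taken from the curves.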

[1] = tested on: Ba/F3-EML4-ALK-G1202R/L1196M; test: as above; format: cell-based; conditions: Ba/F3 EML4-ALK-G1202R-L1196M; 72 hours; read-out: Half maximal inhibitory concentration IC50 for cells Ba/F3-EML4-ALK-G1202R/L1196 M
Summary of the method: as §1

T2 sequence (P10635 whole entry): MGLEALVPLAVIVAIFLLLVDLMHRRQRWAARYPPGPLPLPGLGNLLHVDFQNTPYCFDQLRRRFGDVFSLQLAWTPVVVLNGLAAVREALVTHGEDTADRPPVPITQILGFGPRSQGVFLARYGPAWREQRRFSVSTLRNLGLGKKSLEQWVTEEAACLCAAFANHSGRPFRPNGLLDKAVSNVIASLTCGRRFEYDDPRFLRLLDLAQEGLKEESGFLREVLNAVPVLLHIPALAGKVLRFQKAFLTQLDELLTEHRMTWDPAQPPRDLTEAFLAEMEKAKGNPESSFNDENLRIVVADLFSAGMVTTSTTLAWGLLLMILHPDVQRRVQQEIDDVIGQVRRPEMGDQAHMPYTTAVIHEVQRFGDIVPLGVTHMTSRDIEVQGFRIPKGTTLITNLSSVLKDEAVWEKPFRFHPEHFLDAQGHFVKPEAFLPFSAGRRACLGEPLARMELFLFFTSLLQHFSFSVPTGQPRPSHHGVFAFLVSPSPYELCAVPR
T1 sequence (P33261 whole entry): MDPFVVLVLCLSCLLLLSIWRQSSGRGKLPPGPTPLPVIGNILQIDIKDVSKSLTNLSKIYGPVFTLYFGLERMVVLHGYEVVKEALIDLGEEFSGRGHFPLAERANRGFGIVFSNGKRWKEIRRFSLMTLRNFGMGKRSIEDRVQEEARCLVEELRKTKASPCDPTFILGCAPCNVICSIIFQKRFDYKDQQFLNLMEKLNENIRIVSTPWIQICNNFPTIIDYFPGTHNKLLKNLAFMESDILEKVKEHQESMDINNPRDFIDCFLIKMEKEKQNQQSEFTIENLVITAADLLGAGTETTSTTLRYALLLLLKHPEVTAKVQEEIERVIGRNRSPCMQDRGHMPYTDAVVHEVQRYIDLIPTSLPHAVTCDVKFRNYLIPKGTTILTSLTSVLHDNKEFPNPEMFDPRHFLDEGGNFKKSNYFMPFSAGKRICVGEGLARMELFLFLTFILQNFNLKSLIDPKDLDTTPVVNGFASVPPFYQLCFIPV
T3 sequence (P08684 whole entry): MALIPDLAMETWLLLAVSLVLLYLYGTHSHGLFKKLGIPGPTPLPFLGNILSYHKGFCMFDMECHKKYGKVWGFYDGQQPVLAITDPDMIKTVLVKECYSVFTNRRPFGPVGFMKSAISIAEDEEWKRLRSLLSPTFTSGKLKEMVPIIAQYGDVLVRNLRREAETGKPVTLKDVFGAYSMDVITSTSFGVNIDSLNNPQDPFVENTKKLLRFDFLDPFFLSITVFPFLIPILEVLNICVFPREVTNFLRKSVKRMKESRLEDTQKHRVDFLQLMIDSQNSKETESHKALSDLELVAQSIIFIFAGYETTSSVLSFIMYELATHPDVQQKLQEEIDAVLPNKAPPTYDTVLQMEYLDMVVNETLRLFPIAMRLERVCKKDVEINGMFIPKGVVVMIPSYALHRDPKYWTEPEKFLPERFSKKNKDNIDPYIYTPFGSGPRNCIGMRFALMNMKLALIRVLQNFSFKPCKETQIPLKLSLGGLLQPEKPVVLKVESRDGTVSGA

`Cc1nn2cc3c4nc2c1C(=O)NC1(CC1)COc1ccc(F)cc1CN4[C@H](C(F)F)CO3` [Compound 016] was tested, and the IC50 (CYP2C19) was 22.7 µM, the IC50 (CYP2D6) was > 50 µM and the IC50 (CYP3A4-M) was > 50 µM. The IC50 (CYP1A2) was > 50 µM, the IC50 (Ba/F3-TEL-TRKB) was 0.0006 µM and the IC50 [1] was 0.0125 µM.
